Calls of active or inactive are those of the source. The rule behind the calls is not given here.
Assays:
[1] = biological target: Inosine-5'-monophosphate dehydrogenase 2 (Homo sapiens) (UniProt P12268); assay: Inhibition of human IMPDH2 at 200 uM by SDS-PAGE
[2] = biological target: Inosine-5'-monophosphate dehydrogenase 2 (Homo sapiens) (UniProt P12268); assay: Inhibition of human IMPDH2 at 100 to 500 uM at pH 8
Escherichia coli [3] = assay: Inhibition of recombinant Escherichia coli IMPDH with active site Cys replaced with Ala mutant by SDS-PAGE
Escherichia coli [4] = assay: Ratio of Kinact to Ki for Escherichia coli IMPDH at 25 degC
Escherichia coli [5] = assay: Inhibition of recombinant Escherichia coli IMPDH by SDS-PAGE
Escherichia coli [6] = assay: Inhibition of GMPR in wild type Escherichia coli MG1655 cell lysate by SDS-PAGE
Escherichia coli [7] = assay: Inhibition of IMPDH in wild type Escherichia coli MG1655 cell lysate by SDS-PAGE
[8] = biological target: Inosine-5'-monophosphate dehydrogenase 2 (Homo sapiens) (UniProt P12268); assay: Ratio of Kinact to Ki for human IMPDH2 at 37 degC
[9] = biological target: Inosine-5'-monophosphate dehydrogenase 2 (Homo sapiens) (UniProt P12268); assay: Inhibition of human IMPDH2 at 200 uM by SDS-PAGE in presence of 6 mM dithiothreitol
[10] = biological target: Inosine-5'-monophosphate dehydrogenase 2 (Homo sapiens) (UniProt P12268); assay: Ratio of Kinact to Ki for human IMPDH2 at 25 degC

Sequence of Inosine-5'-monophosphate dehydrogenase 2 (Homo sapiens) (P12268 2-514 limits assumed): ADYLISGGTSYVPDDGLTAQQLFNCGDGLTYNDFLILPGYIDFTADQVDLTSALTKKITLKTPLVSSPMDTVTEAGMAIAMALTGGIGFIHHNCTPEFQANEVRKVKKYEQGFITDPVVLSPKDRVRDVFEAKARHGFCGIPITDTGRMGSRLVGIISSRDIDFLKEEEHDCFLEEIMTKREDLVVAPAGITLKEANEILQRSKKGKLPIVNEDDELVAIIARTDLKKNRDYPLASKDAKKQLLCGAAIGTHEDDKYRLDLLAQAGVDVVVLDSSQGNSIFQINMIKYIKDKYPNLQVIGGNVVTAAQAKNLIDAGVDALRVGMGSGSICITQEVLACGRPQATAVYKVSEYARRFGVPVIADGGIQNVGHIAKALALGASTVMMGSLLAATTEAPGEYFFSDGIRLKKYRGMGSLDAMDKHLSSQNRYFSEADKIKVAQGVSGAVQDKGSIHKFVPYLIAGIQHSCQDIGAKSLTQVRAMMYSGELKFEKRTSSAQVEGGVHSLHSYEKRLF

Q: With `O=C(CCCC[C@@H]1SC[C@@H]2NC(=O)N[C@@H]21)NCCCO[C@@H]1[C@H](O)[C@@H](COP(=O)(O)O)O[C@H]1n1cnc2c(Cl)ncnc21` as the molecule, how does the inhibition [1] read?
A: Active

Q: What about the inhibition [2] of the same molecule?
A: Active

Q: And the inhibition (Escherichia coli [3])?
A: inactive

Q: What about the Ratio (Escherichia coli [4]) of the same molecule?
A: 130 M⁻¹ s⁻¹

Q: And the inhibition (Escherichia coli [5])?
A: Active

Q: What about the inhibition (Escherichia coli [6]) of the same molecule?
A: Active

Q: What about the inhibition (Escherichia coli [7]) of the same molecule?
A: Active

Q: What about the Ratio [8] of the same molecule?
A: 1.4 M⁻¹ s⁻¹

Q: Which inhibition [9] does the source give for `O=P(O)(O)OC[C@H]1O[C@@H](n2cnc3c(Cl)ncnc32)[C@H](O)[C@@H]1O` here?
A: inactive

Q: What about the Ratio (Escherichia coli [4]) of the same molecule?
A: 120 M⁻¹ s⁻¹

Q: And the Ratio [10]?
A: 0.9 M⁻¹ s⁻¹

— ChEMBL document CHEMBL1681664, “Specific biotinylation of IMP dehydrogenase” (Bioorg Med Chem Lett, 2011)
